Laboratory results from PMC7889231 (Journal of Enzyme Inhibition and Medicinal Chemistry, 2021).
Like-named read-outs stand apart in the source and are kept apart here.

Tests used:
[1] = system: HepG-2, HCT-116, and MCF-7; test: MTT anti-proliferative assay, ranges stated over several cell lines; assay type: cell-based; conditions: Homo sapiens
[2] = system: HepG-2; test: MTT anti-proliferative assay, HepG-2; assay type: cell-based, human
[3] = system: MCF-7; test: MTT anti-proliferative assay, MCF-7; assay type: cell-based, human; conditions: Homo sapiens
[4] = system: HCT-116; test: MTT anti-proliferative assay, HCT-116; assay type: cell-based, human
[5] = range over HepG-2, HCT-116 and MCF-7 and over the listed compounds, read-out: IC50 values ranging (all tested cell lines)
[6] = Homo sapiens, HepG2, MTT, mean ± SD of three experiments, read-out: IC50 HepG-2
[7] = MCF7, MTT, mean ± SD of three experiments, read-out: IC50 MCF-7
[8] = Homo sapiens, HCT-116, MTT, mean ± SD of three experiments, read-out: IC50 HCT-116
[9] = MTT, mean ± SD of three experiments, read-out: IC50 HepG-2
[10] = MTT, mean ± SD of three experiments, read-out: IC50 HCT-116

Compound | IC50 [1, 5] [µM] | melting point [°C] | IC50 [3, 7] [µM] | IC50 [4, 8] [µM] | IC50 [4, 10] [µM] | IC50 ([1]; range over HCT-116 and MCF-7 and over the listed compounds, read-out: IC50 values ranging (HCT-116 and MCF-7)) [µM] | IC50 [2, 6] [µM] | IC50 [2, 9] [µM] | IC50 ([1]; read-out: IC50 values ranging (all tested cell lines)) [µM] | IC50 ([2]; Homo sapiens, HepG2, read-out: IC50 HepG-2) [µM] | IC50 ([3]; MCF7, read-out: IC50 MCF-7) [µM] | IC50 ([4]; Homo sapiens, HCT-116, read-out: IC50 HCT-116) [µM]
COc1ccc2nc(Cl)c(/C=C/C(=O)c3ccc(N)cc3)cc2c1 [Compound 6, (E)-1–(4-Aminophenyl)-3–(2-chloro-6-methoxyquinolin-3-yl)prop-2-en-1-one] | 22.4 to 45.5 | 120 to 121 | 37.3 ± 2.1 | 28.6 ± 1.7 |  |  | 32.9 ± 2.1 |  |  |  |  | 
COc1ccc2nc(Cl)c(C3CC(c4ccc(Cl)cc4)=NN3)cc2c1 (stereo not shown) [Compound 8, 2-Chloro-3-[3–(4-chlorophenyl)-4,5-dihydro-1H-pyrazol-5-yl]-6-methoxyquinoline] | 22.4 to 45.5 | 118 to 119 | 33.5 ± 2.4 | 22.4 ± 1.1 |  |  | 30.9 ± 1.2 |  |  |  |  | 
COc1ccc2nc(Cl)c(C3CC(c4ccc(N)cc4)=NN3)cc2c1 (stereo not shown) [Compound 9, 4-[5–(2-Chloro-6-methoxyquinolin-3-yl)-4,5-dihydro-1H-pyrazol-3-yl]aniline] |  | 122 to 123 | 20.5 ± 1.1 | 16.6 | 17.4 ± 1 |  | 17.4 | 16.6 ± 0.8 |  |  |  | 
COc1ccc2nc(Cl)c(C3CC(c4ccc(N)cc4)=NO3)cc2c1 (stereo not shown) [Compound 12, 4-[5–(2-Chloro-6-methoxyquinolin-3-yl)-4,5-dihydroisoxazol-3-yl]aniline] | 22.4 to 45.5 | 127 to 128 | 45.5 ± 2.8 | 40.5 ± 2.4 |  |  | 35.4 ± 1.8 |  |  |  |  | 
COc1ccc2nc(Cl)c(C3CC(c4cc(OC)c(OC)c(OC)c4)=NO3)cc2c1 (stereo not shown) [Compound 13, 5–(2-Chloro-6-methoxyquinolin-3-yl)-3–(3,4,5-trimethoxyphenyl)-4,5-dihydroisoxazole] |  | 133 to 134 | 17 ± 1.2 | 12.9 | 9.96 ± 0.3 |  | 9.96 | 12.9 ± 0.6 |  |  |  | 
COc1ccc2nc(Cl)c(C3CC(c4ccc(N)cc4)=NN3C(N)=S)cc2c1 (stereo not shown) [Compound 15, 3–(4-Aminophenyl)-5–(2-chloro-6-methoxyquinolin-3-yl)-4,5-dihydro-1H-pyrazole-1-carbothioamide] | 10.2 to 17.6 | 123 to 124 | 13.6 ± 0.7 | 11.6 ± 0.9 |  |  | 10.2 ± 0.4 |  |  |  |  | 
COc1ccc2nc(Cl)c(C3CC(c4ccc(N)cc4)=NN3C(N)=O)cc2c1 (stereo not shown) [Compound 18, 3–(4-Aminophenyl)-5–(2-chloro-6-methoxyquinolin-3-yl)-4,5-dihydro-1H-pyrazole-1-carboxamide] | 10.2 to 17.6 | 130 to 131 | 13.7 ± 0.8 | 10.4 ± 0.3 |  |  | 10.2 ± 0.4 |  |  |  |  | 
COc1ccc2nc(Cl)c(C3CC(c4ccc(Cl)cc4)=NN3c3ccc([N+](=O)[O-])cc3[N+](=O)[O-])cc2c1 (stereo not shown) [Compound 23, 2-Chloro-3-[3–(4-chlorophenyl)-1–(2,4-dinitrophenyl)-4,5-dihydro-1H-pyrazol-5-yl]-6-methoxyquinoline] |  | 143 to 144 |  |  |  |  |  |  | 1.78 to 9.19 | 2.64 ± 0.1 | 4.48 ± 0.1 | 1.78 ± 0.1
COc1ccc2nc(Cl)c(-c3cc(-c4ccc(N)cc4)nc(=S)[nH]3)cc2c1 [Compound 27, 4–(4-Aminophenyl)-6–(2-chloro-6-methoxyquinolin-3-yl)pyrimidine-2(1H)-thione] |  | 146 to 147 | 24.3 ± 0.9 | 22.4 ± 0.5 |  |  | 16.3 ± 0.4 |  |  |  |  | 
COc1ccc2nc(Cl)c(-c3cc(-c4ccc(Cl)cc4)nc(N)n3)cc2c1 [Compound 29, 4–(2-Chloro-6-methoxyquinolin-3-yl)-6–(4-chlorophenyl)pyrimidin-2-amine] | 10.2 to 17.6 | 195 to 196 | 17.6 ± 0.8 | 13 ± 0.6 |  |  | 16.5 ± 0.8 |  |  |  |  | 
COc1ccc2nc(Cl)c(-c3cc(-c4cc(OC)c(OC)c(OC)c4)nc(N)n3)cc2c1 [Compound 31, 4–(2-Chloro-6-methoxyquinolin-3-yl)-6–(3,4,5-trimethoxyphenyl)pyrimidin-2-amine] |  | 162 to 163 | 15.2 ± 0.7 | 10.5 ± 0.4 |  |  | 9.45 ± 0.5 |  |  |  |  | 
COc1ccc2nc(Cl)c(-c3cc(-c4cc(OC)c(OC)c(OC)c4)nc(=O)[nH]3)cc2c1 [Compound 34, 6–(2-Chloro-6-methoxyquinolin-3-yl)-4–(3,4,5-trimethoxyphenyl)pyrimidin-2(1H)-one] | 10.2 to 17.6 | 176 to 177 | 15.4 ± 0.8 | 11.9 ± 0.4 |  |  | 15.3 ± 0.4 |  |  |  |  | 

More lines, main results first:

IC50 [1, 5] [µM] | melting point [°C] | IC50 [3, 7] [µM] | IC50 [4, 8] [µM] | IC50 [4, 10] [µM] | IC50 ([1]; range over HCT-116 and MCF-7 and over the listed compounds, read-out: IC50 values ranging (HCT-116 and MCF-7)) [µM] | Compound | IC50 [2, 6] [µM] | IC50 [2, 9] [µM] | IC50 ([1]; read-out: IC50 values ranging (all tested cell lines)) [µM] | IC50 ([2]; Homo sapiens, HepG2, read-out: IC50 HepG-2) [µM] | IC50 ([3]; MCF7, read-out: IC50 MCF-7) [µM] | IC50 ([4]; Homo sapiens, HCT-116, read-out: IC50 HCT-116) [µM]
22.4 to 45.5 | 135 to 136 | 32.2 ± 2 | 28.9 ± 1.7 |  |  | COc1ccc2nc(Cl)c(/C=C/C(=O)c3ccc(Cl)cc3)cc2c1 [Compound 5, (E)-3–(2-Chloro-6-methoxyquinolin-3-yl)-1–(4-chlorophenyl)prop-2-en-1-one] | 29.2 ± 1.9 |  |  |  |  | 
 | 127 to 128 | 16.9 ± 1.2 | 25.1 ± 1.2 |  |  | COc1ccc2nc(Cl)c(/C=C/C(=O)c3cc(OC)c(OC)c(OC)c3)cc2c1 [Compound 7, (E)-3–(2-Chloro-6-methoxyquinolin-3-yl)-1–(3,4,5-trimethoxyphenyl)prop-2-en-1-one] | 23.6 ± 1.3 |  |  |  |  | 
 | 114 to 115 | 25.1 ± 1.2 | 15.4 | 17.4 ± 1.1 |  | COc1ccc2nc(Cl)c(C3CC(c4cc(OC)c(OC)c(OC)c4)=NN3)cc2c1 (stereo not shown) [Compound 10, 2-Chloro-6-methoxy-3-[3–(3,4,5-trimethoxyphenyl)-4,5-dihydro-1H-pyrazol-5-yl]quinoline] | 17.4 | 15.4 ± 0.9 |  |  |  | 
 | 145 to 146 | 22.8 ± 1.4 | 19.7 ± 1.3 |  |  | COc1ccc2nc(Cl)c(C3CC(c4ccc(Cl)cc4)=NO3)cc2c1 (stereo not shown) [Compound 11, 5–(2-Chloro-6-methoxyquinolin-3-yl)-3–(4-chlorophenyl)-4,5-dihydroisoxazole] | 20.5 ± 1 |  |  |  |  | 
 | 121 to 122 | 13.9 ± 0.3 | 9.3 | 8.87 ± 0.3 |  | COc1ccc2nc(Cl)c(C3CC(c4cc(OC)c(OC)c(OC)c4)=NN3C(N)=S)cc2c1 (stereo not shown) [Compound 16, 5–(2-Chloro-6-methoxyquinolin-3-yl)-3–(3,4,5-trimethoxyphenyl)-4,5-dihydro-1H-pyrazole-1-carbothioamide] | 8.87 | 9.3 ± 0.3 |  |  |  | 
10.2 to 17.6 | 135 to 136 | 15.9 ± 0.6 | 11.4 ± 0.4 |  |  | COc1ccc2nc(Cl)c(C3CC(c4ccc(Cl)cc4)=NN3C(N)=O)cc2c1 (stereo not shown) [Compound 17, 5–(2-Chloro-6-methoxyquinolin-3-yl)-3–(4-chlorophenyl)-4,5-dihydro-1H-pyrazole-1-carboxamide] | 12.7 ± 0.5 |  |  |  |  | 
 | 117 to 118 | 9.04 ± 0.5 | 7.38 ± 0.4 |  | 6.48 to 10.3 | COc1ccc2nc(Cl)c(C3CC(c4cc(OC)c(OC)c(OC)c4)=NN3C(N)=O)cc2c1 (stereo not shown) [Compound 19, 5–(2-Chloro-6-methoxyquinolin-3-yl)-3–(3,4,5-trimethoxyphenyl)-4,5-dihydro-1H-pyrazole-1-carboxamide] | 10.9 ± 0.5 |  |  |  |  | 
22.4 to 45.5 | 175 to 176 | 33.8 ± 1.5 | 32.7 ± 0.9 |  |  | COc1ccc2nc(Cl)c(-c3cc(-c4ccc(N)cc4)nc(N)n3)cc2c1 [Compound 30, 4–(4-Aminophenyl)-6–(2-chloro-6-methoxyquinolin-3-yl)pyrimidin-2-amine] | 28.5 ± 1.3 |  |  |  |  | 
